Results from patent US12258337B2, “Bicyclic CX3CR1 receptor agonists” (Board of Regents, The University of Texas System, priority 2019, dated 2025).

Experiments:
rCX3CR1 = molecular target: T1, rCX3CR1 (Rattus norvegicus, UniProt P35411); experiment: Ga16 assay, CX3CR1 agonism, Ca2+ sensitive photo-protein readout (FLIPRTETRA); assay type: cell-based; conditions: rat CX3CR1 cell line
T1 construct: expressed in transfected cells; stably expresses a Ca2+ sensitive photo-protein
T1 sequence (P35411 1-354): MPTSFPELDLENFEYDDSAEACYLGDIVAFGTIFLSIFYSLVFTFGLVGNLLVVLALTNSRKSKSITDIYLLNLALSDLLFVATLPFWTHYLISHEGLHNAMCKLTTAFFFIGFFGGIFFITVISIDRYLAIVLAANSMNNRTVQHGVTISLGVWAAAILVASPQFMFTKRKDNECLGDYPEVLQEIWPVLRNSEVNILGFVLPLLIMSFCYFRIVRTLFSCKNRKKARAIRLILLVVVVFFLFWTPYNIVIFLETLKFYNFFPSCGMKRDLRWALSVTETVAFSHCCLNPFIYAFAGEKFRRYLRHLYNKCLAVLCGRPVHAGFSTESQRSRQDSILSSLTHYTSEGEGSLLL
How it was run: (§1)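 Cells expressing human, mouse or rat CX3CR1 with a stably expressed Ca2+-sensitive photoprotein were loaded with 10 μM coelenterazine in tyrode buffer pH 7.4 for 3 h at room temperature. Agonist-mode luminescence kinetics were recorded for 90 s after compound injection on FLIPRTETRA. Dose-response runs were done in quadruplicate, with fractalkine as the reference agonist.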

mCX3CR1 = molecular target: T2, mCX3CR1 (Mus musculus, UniProt Q9Z0D9); experiment: as above; assay type: cell-based; conditions: mouse CX3CR1 cell line
T2 construct: expressed in transfected cells; stably expresses a Ca2+ sensitive photo-protein
T2 sequence (Q9Z0D9 1-354): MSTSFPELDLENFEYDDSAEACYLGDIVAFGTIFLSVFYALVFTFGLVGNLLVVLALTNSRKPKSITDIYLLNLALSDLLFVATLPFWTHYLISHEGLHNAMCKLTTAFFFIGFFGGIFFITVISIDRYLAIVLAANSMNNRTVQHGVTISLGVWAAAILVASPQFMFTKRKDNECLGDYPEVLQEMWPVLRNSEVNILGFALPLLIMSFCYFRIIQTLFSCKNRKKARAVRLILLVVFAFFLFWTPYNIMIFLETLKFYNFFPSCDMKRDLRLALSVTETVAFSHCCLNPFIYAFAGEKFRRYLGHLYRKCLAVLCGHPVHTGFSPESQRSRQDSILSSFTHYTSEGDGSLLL
How it was run: as §1

Row | Structure (SMILES) | EC50 (rCX3CR1) [µM] | EC50 (mCX3CR1) [µM]
1 | CC(C)(CNC(=O)c1cc2c(s1)CCCCCC2)CN1CCCC1 [Example 1, N-(2,2-dimethyl-3-pyrrolidin-1-ylpropyl)-4,5,6,7,8,9-hexahydrocycloocta[b]thiophene-2-carboxamide] | 13.9 | 15.7
2 | CN(C)CC1(CNC(=O)c2cc3c(s2)CCCCCC3)CCCC1 [Example 2, N-[[1-[(dimethylamino)methyl]cyclopentyl]methyl]-4,5,6,7,8,9-hexahydrocycloocta[b]thiophene-2-carboxamide] | 8.5 | 10.3
3 | O=C(NCC1(CN2CCCCC2)CCCC1)c1cc2c(s1)CCCCCC2 [Example 15, N-[[1-(piperidin-1-ylmethyl)cyclopentyl]methyl]-4,5,6,7,8,9-hexahydrocycloocta[b]thiophene-2-carboxamide] | 20 | 24.2
4 | CN(C)CC1(CNC(=O)c2cc3c(s2)CCCCCC3)CCC1 [Example 23, N-[[1-[(dimethylamino)methyl]cyclobutyl]methyl]-4,5,6,7,8,9-hexahydrocycloocta[b]thiophene-2-carboxamide] | 9.5 | 11.5
5 | CN(C)CC1(CNC(=O)c2cc3c(s2)CCCCCC3)CC(O)C1 (stereo not shown) [Example 31, N-[[1-[(dimethylamino)methyl]-3-hydroxycyclobutyl]methyl]-4,5,6,7,8,9-hexahydrocycloocta[b]thiophene-2-carboxamide] | 14.8 | 18.5
6 | CN(C)CC(C)(C)CNC(=O)c1cc2c(s1)CCCCCC2 [Example 70, N-[3-(dimethylamino)-2,2-dimethylpropyl]-4,5,6,7,8,9-hexahydrocycloocta[b]thiophene-2-carboxamide] | 26.1 | 44.7

The remaining compounds from weak to strong by EC50 (rCX3CR1), led by results:

Row | EC50 (rCX3CR1) [µM] | EC50 (mCX3CR1) [µM] | Structure (SMILES)
7 | 23.1 | 39.7 | O=C(NCC1(CN2CCC(O)C2)CCCC1)c1cc2c(s1)CCCCCC2 (racemic) [Example 25, N-[[1-[(3-hydroxypyrrolidin-1-yl)methyl]cyclopentyl]methyl]-4,5,6,7,8,9-hexahydrocycloocta[b]thiophene-2-carboxamide]
8 | 16.9 | 16 | CC(C)(CNC(=O)c1cc2c(s1)CCCCCC2)CN1CCCCC1 [Example 13, N-(2,2-dimethyl-3-piperidin-1-ylpropyl)-4,5,6,7,8,9-hexahydrocycloocta[b]thiophene-2-carboxamide]
9 | 13.4 | 17 | CN(CCO)CC1(CNC(=O)c2cc3c(s2)CCCCCC3)CCC1 [Example 30, N-[[1-[[2-hydroxyethyl(methyl)amino]methyl]cyclobutyl]methyl]-4,5,6,7,8,9-hexahydrocycloocta[b]thiophene-2-carboxamide]
10 | 11.4 | 14.8 | O=C(NCC1(CN2CCCC2)CC(O)C1)c1cc2c(s1)CCCCCC2 (stereo not shown) [Example 32, N-[[3-hydroxy-1-(pyrrolidin-1-ylmethyl)cyclobutyl]methyl]-4,5,6,7,8,9-hexahydrocycloocta[b]thiophene-2-carboxamide]
11 | 10.8 | 12.7 | O=C(NCC1(CN2CCCC(O)C2)CCCC1)c1cc2c(s1)CCCCCC2 (stereo not shown) [Example 27, N-[[1-[(3-hydroxypiperidin-1-yl)methyl]cyclopentyl]methyl]-4,5,6,7,8,9-hexahydrocycloocta[b]thiophene-2-carboxamide]
12 | 10.2 | 11.3 | O=C(NCC1(CN2CCCC2)CCCC1)c1cc2c(s1)CCCCCC2 [Example 5, N-[[1-(pyrrolidin-1-ylmethyl)cyclopentyl]methyl]-4,5,6,7,8,9-hexahydrocycloocta[b]thiophene-2-carboxamide]
13 | 9.4 | 10 | O=C(NCC1(CN2CCC(O)CC2)CCCC1)c1cc2c(s1)CCCCCC2 [Example 28, N-[[1-[(4-hydroxypiperidin-1-yl)methyl]cyclopentyl]methyl]-4,5,6,7,8,9-hexahydrocycloocta[b]thiophene-2-carboxamide]
14 | 5.8 | 6.6 | O=C(NCC1(CN2CCCC2)CCC1)c1cc2c(s1)CCCCCC2 [Example 21, N-[[1-(pyrrolidin-1-ylmethyl)cyclobutyl]methyl]-4,5,6,7,8,9-hexahydrocycloocta[b]thiophene-2-carboxamide]
